This is an account of results in ChEMBL document CHEMBL3046942, “Synthesis and biological activity of new cycloalkylthiophene-Schiff bases and their Cr(III) and Zn(II) complexes” (2010).

In one test the test system is Candida albicans. Description: Antifungal activity against Candida albicans Y-1200-NIH at 0.25 ug/ml after 24 hr by agar well diffusion method. It counts as functional.
The next test concerns Brucella abortus. In words: Antibacterial activity against Brucella abortus RSKK-03026 at 0.25 ug/ml after 24 hr by agar well diffusion method. It counts as functional. For orientation: Agar diffusion results depend on both activity and mobility in agar.
Test [1] has as its system Shigella boydii. In words: Antibacterial activity against Shigella boydii type 6 RSKK-96043 at 0.25 ug/ml after 24 hr by agar well diffusion method. It counts as functional. To be noted: type 6 RSKK-96043, 24 h, read-out: DIZ.
Test [2] relates to Shigella boydii. Description: Antibacterial activity against Shigella boydii type 16 at 0.25 ug/ml after 24 hr by agar well diffusion method. It counts as functional. To be noted: type 16, 24 h, read-out: DIZ.
Test [3] concerns Shigella boydii. In words: Antibacterial activity against Shigella boydii type 11 at 0.25 ug/ml after 24 hr by agar well diffusion method. It counts as functional. To be noted: type 11, 24 h, read-out: DIZ.
Test [4] has as its system Salmonella typhimurium. In words: Antibacterial activity against Salmonella enterica subsp. enterica serovar Typhi H NCTC 901.8394 at 0.25 ug/ml after 24 hr by agar well diffusion method. It counts as functional. To be noted: H NCTC 901.8394, 24 h, read-out: DIZ.
The test system of test [5] is Proteus. Description: Antibacterial activity against Proteus OX2 Wrah at 0.25 ug/ml after 24 hr by agar well diffusion method. It counts as functional.
Test [6] deals with Escherichia coli. In words: Antibacterial activity against Escherichia coli ATCC 1280 at 0.25 ug/ml after 24 hr by agar well diffusion method. It counts as functional. As to conditions: ATCC 1280, 24 h, read-out: DIZ.
In test [7] the test system is Pseudomonas putida. Description: Antibacterial activity against Pseudomonas putida at 0.25 ug/ml after 24 hr by agar well diffusion method. It counts as functional.
Test [8] has as its system Listeria monocytogenes. Description: Antibacterial activity against Listeria monocytogenes ATCC 19115 at 0.25 ug/ml after 24 hr by agar well diffusion method. It counts as functional.
Test [9] relates to Staphylococcus aureus. In words: Antibacterial activity against Staphylococcus aureus ATCC 25923 at 0.25 ug/ml after 24 hr by agar well diffusion method. It counts as functional. As to conditions: ATCC 25923, 24 h, read-out: DIZ.
Test [10] concerns Shigella boydii. In words: Antibacterial activity against Shigella boydii type 6 RSKK-96043 at 10 ug after 24 hr by agar well diffusion method. It counts as functional. To be noted: type 6 RSKK-96043, 24 h, read-out: DIZ.
Test [11] concerns Shigella boydii. Description: Antibacterial activity against Shigella boydii type 16 at 10 ug after 24 hr by agar well diffusion method. It counts as functional. As to conditions: type 16, 24 h, read-out: DIZ.
The subject of test [12] is Shigella boydii. In words: Antibacterial activity against Shigella boydii type 11 at 10 ug after 24 hr by agar well diffusion method. As to conditions: type 11, 24 h, read-out: DIZ. It counts as functional.
Test [13] relates to Salmonella typhimurium. In words: Antibacterial activity against Salmonella enterica subsp. enterica serovar Typhi H NCTC 901.8394 at 10 ug after 24 hr by agar well diffusion method. It counts as functional. To be noted: H NCTC 901.8394, 24 h, read-out: DIZ.
Test [14] relates to Proteus. Description: Antibacterial activity against Proteus OX2 Wrah at 10 ug after 24 hr by agar well diffusion method. To be noted: read-out: DIZ. It counts as functional.
Test [15] deals with Escherichia coli. In words: Antibacterial activity against Escherichia coli ATCC 1280 at 10 ug after 24 hr by agar well diffusion method. It counts as functional. As to conditions: ATCC 1280, 24 h, read-out: DIZ.
In test [16] the test system is Pseudomonas putida. In words: Antibacterial activity against Pseudomonas putida at 10 ug after 24 hr by agar well diffusion method. It counts as functional. As to conditions: read-out: DIZ.
Test [17] deals with Listeria monocytogenes. Description: Antibacterial activity against Listeria monocytogenes ATCC 19115 at 10 ug after 24 hr by agar well diffusion method. It counts as functional. To be noted: ATCC 19115, 24 h, read-out: DIZ.
The subject of test [18] is Staphylococcus aureus. Description: Antibacterial activity against Staphylococcus aureus ATCC 25923 at 10 ug after 24 hr by agar well diffusion method. It counts as functional. To be noted: ATCC 25923, 24 h, read-out: DIZ.
Test [19] relates to Shigella boydii. Description: Antibacterial activity against Shigella boydii type 6 RSKK-96043 at 25 ug after 24 hr by agar well diffusion method. It counts as functional. As to conditions: type 6 RSKK-96043, 24 h, read-out: DIZ.
Test [20] relates to Shigella boydii. In words: Antibacterial activity against Shigella boydii type 16 at 25 ug after 24 hr by agar well diffusion method. It counts as functional. As to conditions: type 16, 24 h, read-out: DIZ.
Test [21] has as its system Shigella boydii. In words: Antibacterial activity against Shigella boydii type 11 at 25 ug after 24 hr by agar well diffusion method. To be noted: type 11, 24 h, read-out: DIZ. It counts as functional.
In test [22] the test system is Salmonella typhimurium. Description: Antibacterial activity against Salmonella enterica subsp. enterica serovar Typhi H NCTC 901.8394 at 25 ug after 24 hr by agar well diffusion method. It counts as functional. As to conditions: H NCTC 901.8394, 24 h, read-out: DIZ.
Test [23] concerns Proteus. In words: Antibacterial activity against Proteus OX2 Wrah at 25 ug after 24 hr by agar well diffusion method. It counts as functional. As to conditions: read-out: DIZ.
Test [24] relates to Pseudomonas putida. In words: Antibacterial activity against Pseudomonas putida at 25 ug after 24 hr by agar well diffusion method. It counts as functional. To be noted: read-out: DIZ.
Test [25] deals with Listeria monocytogenes. In words: Antibacterial activity against Listeria monocytogenes ATCC 19115 at 25 ug after 24 hr by agar well diffusion method. To be noted: ATCC 19115, 24 h, read-out: DIZ. It counts as functional.
Test [26] deals with Staphylococcus aureus. In words: Antibacterial activity against Staphylococcus aureus ATCC 25923 at 25 ug after 24 hr by agar well diffusion method. It counts as functional. As to conditions: ATCC 25923, 24 h, read-out: DIZ.
Test [27] relates to Escherichia coli. Description: microbe, parasite or virus in culture. As to conditions: ATCC 1280, 24 h, read-out: DIZ.

The source made the active and inactive calls. The calls are words filed in the database; no cut-off is given here.

Take `CCOC(=O)c1c(/N=C/c2c(O)ccc3ccccc23)sc2c1CCCC2`: the “diameter of the inhibition zone (DIZ)” value in the test on Candida albicans, in the test with Brucella abortus and in the test on Proteus [5] was “inactive” throughout. The zone of inhibition at 0.25 µg/mL in the test with Shigella boydii [1] turned out to be 7 mm; in the test with Shigella boydii [2] it was 8 mm; with Shigella boydii [3] it was 7 mm; in the test on Salmonella typhimurium [4], 7 mm; in the test with Escherichia coli [6], 6 mm; with Pseudomonas putida [7] (read-out: DIZ), 7 mm. The zone of inhibition at 0.25 µg/mL with Listeria monocytogenes [8] (ATCC 19115, 24 h, read-out: DIZ) was 9 mm; in the test with Staphylococcus aureus [9], 9 mm.

On to `CC1(C)S[C@@H]2[C@H](NC(=O)[C@H](N)c3ccccc3)C(=O)N2[C@H]1C(=O)O` [AMPICILLIN], for which the zone of inhibition at 10 µg/disc with Shigella boydii [10] turned out to be 6 mm; in the test on Shigella boydii [11] it was 16 mm; in the test with Shigella boydii [12] it was 20 mm; in the test with Salmonella typhimurium [13] it was 11 mm; in the test on Proteus [14], 9 mm; in the test on Escherichia coli [15] it was 10 mm. The zone of inhibition at 10 µg/disc in the test with Pseudomonas putida [16] worked out at 8 mm; in the test on Listeria monocytogenes [17] it was 16 mm; in the test with Staphylococcus aureus [18], 30 mm.

With `CCOC(=O)c1c(/N=C/c2c(O)ccc3ccccc23)sc2c1CCCCC2`, the zone of inhibition at 0.25 µg/mL with Candida albicans (read-out: DIZ) was 11 mm; in the test with Brucella abortus (RSKK-03026, 24 h, read-out: DIZ), 5 mm; in the test with Shigella boydii [1], 7 mm; in the test with Shigella boydii [2], 8 mm; in the test on Shigella boydii [3] it was 8 mm; in the test with Salmonella typhimurium [4], 8 mm. The zone of inhibition at 0.25 µg/mL in the test on Escherichia coli [6] and in the test on Staphylococcus aureus [9] was 9 mm each time. For the same compound, the “diameter of the inhibition zone (DIZ)” value in the test with Proteus [5], in the test with Pseudomonas putida [7] and in the test with Listeria monocytogenes [8] was “inactive” each time.

`Cc1cc(NS(=O)(=O)c2ccc(N)cc2)no1` [SULFAMETHOXAZOLE]: the zone of inhibition at 25 µg/disc came out at 20 mm in the test with Shigella boydii [19]; 20 mm in the test on Shigella boydii [20]; 19 mm in the test on Shigella boydii [21]; 17 mm in the test with Salmonella typhimurium [22]; 20 mm in the test on Proteus [23]; 18 mm in the test on Pseudomonas putida [24]. Also, the zone of inhibition at 25 µg/disc in the test on Listeria monocytogenes [25] worked out at 11 mm; in the test with Staphylococcus aureus [26], 24 mm; with Escherichia coli [27], 18 mm.
